Results reported in patent US9174994B2, “Enhanced treatment regimens using mTor inhibitors” (INTELLIKINE LLC, priority 2011, dated 2015).

What was measured:
[1] = Additional study: grade 3 or greater treatment-emergent adverse events; format: in vivo, human
[2] = test system: TORC1 (p4EBP1 and pS6) and TORC2 (pPRAS40); assay: Human skin immunohistochemistry assay (skin biopsies, Phase I trial); format: in vivo
Protocol: Skin tissue was fixed in 10% neutral-buffered formalin solution for 24 hours and then processed and embedded in paraffin block. Sections (4 μm) were cut and mounted onto microscopic slides. Sections were incubated with primary antibodies (p4EBP1, pS6, or pRAS40) overnight and developed using a chromogenic substrate.
Pharmacodynamic (PD) endpoints were evaluated in surrogate (peripheral blood cells [PBCs], skin) and tumor tissues for the phosphorylation of TORC1-dependent markers (4EBP1/S6), and TORC2-dependent markers (AKT/PRAS40). 50 patients were treated in 3 intermittent dosing regimens; 21 in 6 cohorts ranging 7-40 mg QW, 20 in 5 cohorts ranging 6-20 mg QDx3d QW, and 9 in 3 cohorts ranging 7-13 mg QDxSd QW. […] The MTD for intermittent dosing was not reached. All adverse events (AEs) reported were reversible. The most common (≧20%, n=35) AEs considered possibly related to compound A reported in all 3 dosing regimens included nausea (51%), hyperglycemia (37%), mucosal inflammation (29%), rash (23%), asthenia (23%), vomiting (26%), and diarrhea (20%). The majority of AEs considered possibly related to compound A in any regimen were Grade 1 or 2. The only reported Grade ≧3 AE (≧5%) possibly related to compound A in 3 regimens was lymphopenia (6%). Tables 4-9 show summaries of observed adverse events for various treatment regimens of the invention.

[3] = test system: advanced solid tumors; assay: Phase I clinical trial: preliminary antitumor activity; format: in vivo, human; details: patients with lung and renal cancer
Protocol: (§1) Adult patients with histologically confirmed advanced solid tumors were enrolled in a 3+3 dose escalation Phase I study evaluating 3 intermittent schedules of administration for compound A: QW (once weekly), QD×3d QW (3 days on 4 days off), and QD×5d QW (5 days on 2 days off), in comparison with daily dosing (QD). Safety, maximum tolerated dose (MTD), pharmacokinetics (PK) and preliminary antitumor activity were evaluated.

[4] = Phase I clinical trial: plasma pharmacokinetics; format: in vivo, human
Protocol: as §1

## CC(C)n1nc(-c2ccc3oc(N)nc3c2)c2c(N)ncnc21 [compound A]
[1]; QDx5d QW (N = 15)
  Grade 3 or greater TEAE: Rash: 1 (7%)
  Grade 3 or greater TEAE: Thrombocytopenia: 0 (0%)
  Grade 3 or greater TEAE: Vomiting: 1 (7%)
  Patients Reporting at least one Grade 3 or greater TEAE: 8 (53%)
[1]; QW Dosing (N = 22)
  Grade 3 or greater TEAE: Anaemia: 2 (9%)
  Grade 3 or greater TEAE: Aspartate aminotransferase increase: 1 (5%)
  Grade 3 or greater TEAE: Asthenia: 1 (5%)
  Grade 3 or greater TEAE: Blood creatinine increase: 0 (0%)
  Grade 3 or greater TEAE: Deep vein thrombosis: 1 (5%)
  Grade 3 or greater TEAE: Diarrhoea: 1 (5%)
  Grade 3 or greater TEAE: Disease progression: 2 (9%)
  Grade 3 or greater TEAE: Fatigue: 1 (5%)
  Grade 3 or greater TEAE: Gamma-glutamyltransferase increase: 1 (5%)
  Grade 3 or greater TEAE: Hyperglycaemia: 0 (0%)
  Grade 3 or greater TEAE: Hypokalaemia: 1 (5%)
  Grade 3 or greater TEAE: Hyponatraemia: 0 (0%)
  Grade 3 or greater TEAE: Hypophsphataemia: 0 (0%)
  Grade 3 or greater TEAE: Lymphopenia: 1 (5%)
  Grade 3 or greater TEAE: Mucosal Inflammation: 0 (0%)
  Grade 3 or greater TEAE: Muscular weakness: 1 (5%)
  Grade 3 or greater TEAE: Nausea: 0 (0%)
  Grade 3 or greater TEAE: Neutropenia: 1 (5%)
  Grade 3 or greater TEAE: Pruritus: 0 (0%)
  Grade 3 or greater TEAE: Rash: 0 (0%)
  Grade 3 or greater TEAE: Thrombocytopenia: 0 (0%)
  Grade 3 or greater TEAE: Vomiting: 1 (5%)
  Patients Reporting at least one Grade 3 or greater TEAE: 10 (45%)
[1]; Total (N = 91)
  Grade 3 or greater TEAE: Anaemia: 6 (7%)
  Grade 3 or greater TEAE: Aspartate aminotransferase increase: 2 (2%)
  Grade 3 or greater TEAE: Asthenia: 4 (4%)
  Grade 3 or greater TEAE: Blood creatinine increase: 2 (2%)
  Grade 3 or greater TEAE: Deep vein thrombosis: 2 (2%)
  Grade 3 or greater TEAE: Diarrhoea: 3 (3%)
  Grade 3 or greater TEAE: Disease progression: 2 (2%)
  Grade 3 or greater TEAE: Fatigue: 3 (3%)
  Grade 3 or greater TEAE: Gamma-glutamyltransferase increase: 3 (3%)
  Grade 3 or greater TEAE: Hyperglycaemia: 9 (10%)
  Grade 3 or greater TEAE: Hypokalaemia: 3 (3%)
  Grade 3 or greater TEAE: Hyponatraemia: 2 (2%)
  Grade 3 or greater TEAE: Hypophsphataemia: 5 (5%)
  Grade 3 or greater TEAE: Lymphopenia: 6 (7%)
  Grade 3 or greater TEAE: Mucosal Inflammation: 7 (8%)
  Grade 3 or greater TEAE: Muscular weakness: 2 (2%)
  Grade 3 or greater TEAE: Nausea: 2 (2%)
  Grade 3 or greater TEAE: Neutropenia: 2 (2%)
  Grade 3 or greater TEAE: Pruritus: 3 (3%)
  Grade 3 or greater TEAE: Rash: 9 (10%)
  Grade 3 or greater TEAE: Thrombocytopenia: 2 (2%)
  Grade 3 or greater TEAE: Vomiting: 3 (3%)
  Patients Reporting at least one Grade 3 or greater TEAE: 53 (58%)
[2]; 10 mg Q5D
  PD (% inhibition, H score) Skin: 4EBP1/PRAS40: 80%
[2]; 13 mg Q5D
  PD (% inhibition, H score) Skin: 4EBP1/PRAS40: 80%
[2]; 16 mg Q3D
  PD (% inhibition, H score) Skin: 4EBP1/PRAS40: 80%
[2]; 20 mg Q3D
  PD (% inhibition, H score) Skin: 4EBP1/PRAS40: 80%
[2]; 30 mg QW
  PD (% inhibition, H score) Skin: 4EBP1/PRAS40: 80%
[2]; 40 mg QW
  PD (% inhibition, H score) Skin: 4EBP1/PRAS40: 80%
[2]; skin biopsies
  pathway inhibition of TORC1 (p4EBP1 and pS6) and TORC2 (pPRAS40): 60-100%
[3]
  Preliminary anti-tumor activity: Preliminary anti-tumor activity was seen
[4]; 6 mg QD
  Time per week (hrs) above 100 nM plasma conc.: 20 h
[4]; 10 mg Q5D
  Time per week (hrs) above 100 nM plasma conc.: 25 h
[4]; 13 mg Q5D
  Time per week (hrs) above 100 nM plasma conc.: 30 h
[4]; 16 mg Q3D
  Time per week (hrs) above 100 nM plasma conc.: 30 h
[4]; 20 mg Q3D
  Time per week (hrs) above 100 nM plasma conc.: 35 h
[4]; 30 mg QW
  Time per week (hrs) above 100 nM plasma conc.: 15 h
[4]; 40 mg QW
  Time per week (hrs) above 100 nM plasma conc.: 20 h
[4]; following oral doses
  Plasma exposures (Cmax and AUC0-24): dose dependence: dose-linear plasma PK
